Like-named read-outs stand apart in the source and are kept apart here.
Columns and labels:
[1] = tested on: SARS-CoV-2 Victoria live virus (SARS-CoV-2/human/AUS/VIC01/2020); assay: microbe, parasite or virus in culture; assay type: cell-based
[2] = tested on: SARS-CoV-2 pseudotyped lentivirus; assay: microbe, parasite or virus in culture; assay type: cell-based
[3] = tested on: SARS-CoV-2 Alpha live virus; assay: microbe, parasite or virus in culture; assay type: cell-based
[4] = tested on: SARS-CoV-2 pseudotyped lentivirus (Delta); assay: microbe, parasite or virus in culture; assay type: cell-based; details: read-out: IC50 pseudoviral neutralization, Delta
[5] = tested on: SARS-CoV-2 pseudotyped lentivirus (Beta); assay: microbe, parasite or virus in culture; assay type: cell-based; details: read-out: IC50 pseudoviral neutralization, Beta
[6] = tested on: SARS-CoV-2 Gamma live virus; assay: microbe, parasite or virus in culture; assay type: cell-based; details: Severe acute respiratory syndrome coronavirus 2, read-out: IC50 live virus neutralization, Gamma
[7] = tested on: SARS-CoV-2 Delta live virus; assay: microbe, parasite or virus in culture; assay type: cell-based
[8] = tested on: SARS-CoV-2 pseudotyped lentivirus (Alpha); assay: microbe, parasite or virus in culture; assay type: cell-based; details: read-out: IC50 pseudoviral neutralization, Alpha
[9] = tested on: SARS-CoV-2 pseudotyped lentivirus (Gamma); assay: microbe, parasite or virus in culture; assay type: cell-based; details: read-out: IC50 pseudoviral neutralization, Gamma
[10] = tested on: SARS-CoV-2 Omicron live virus; assay: microbe, parasite or virus in culture; assay type: cell-based; details: Severe acute respiratory syndrome coronavirus 2, read-out: IC50 live virus neutralization, Omicron
[11] = tested on: SARS-CoV-2 pseudotyped lentivirus (Omicron); assay: microbe, parasite or virus in culture; assay type: cell-based; details: read-out: IC50 pseudoviral neutralization, Omicron
[12] = tested on: SARS-CoV-2 pseudotyped lentivirus (Victoria); assay: microbe, parasite or virus in culture; assay type: cell-based; details: read-out: IC50 pseudoviral neutralization, Victoria
SARS-CoV-2 M^pro [13] = target: T1, SARS-CoV-2 M^pro (Severe acute respiratory syndrome coronavirus 2, UniProt P0DTD1); assay: biochemical
SARS-CoV-2 = details: cited from earlier work
SARS-CoV-2 M^pro [14] = target: T1, SARS-CoV-2 M^pro; assay type: binding
[15] = Severe acute respiratory syndrome coronavirus 2, read-out: IC50, neutralization of Victoria live virus
[16] = Severe acute respiratory syndrome coronavirus 2, HEK293T/17, read-out: IC50, neutralization of SARS-CoV-2 pseudotyped lentivirus

Structure (SMILES): NC(=O)c1ccc(N)cc1OC1CCN(CC(F)(F)F)CC1 [GEN626]
- IC50 [1, 15]: > 50 µM
- IC50 [2, 16]: > 50 µM

Structure (SMILES): CS(=O)(=O)c1ccccc1Oc1ccc(-c2ccc(S(N)(=O)=O)cc2)cc1 [GEN725]
- IC50 [1, 15]: > 50 µM
- IC50 [2, 16]: 18.7 µM

Structure (SMILES): C#CCN1CCC(CCNc2ccnc3ccccc23)CC1 [GEN727]
- IC50 ([3]; Severe acute respiratory syndrome coronavirus 2, read-out: IC50 live virus neutralization, Alpha): 33.8 ± 1.1 µM
- IC50 ([3]; read-out: IC50 live virus neutralization, Alpha): < 50 µM
- IC50 [4]: 2.2 ± 0.1 µM
- IC50 [5]: 1.1 ± 0.8 µM
- IC50 [6]: 55.4 ± 8.9 µM
- IC50 ([7]; Severe acute respiratory syndrome coronavirus 2, read-out: IC50 live virus neutralization, Delta): 39.1 ± 7.4 µM
- IC50 ([7]; read-out: IC50 live virus neutralization, Delta): < 50 µM
- IC50 [8]: 2.4 ± 0.4 µM
- IC50 [9]: 0.7 ± 0.3 µM
- IC50 [10]: 130 ± 1.9 µM
- IC50 [11]: 2.7 ± 0.5 µM
- IC50 [1, 15]: 34.8 ± 2 µM
- IC50 ([1]; Severe acute respiratory syndrome coronavirus 2, read-out: IC50 live virus neutralization, Victoria): 31.5 ± 2.6 µM
- IC50 ([1]; read-out: IC50 live virus neutralization, Victoria): < 50 µM
- IC50 [12]: 2.8 ± 1.6 µM
- IC50 [2, 16]: 2.8 µM
- IC50 ([2]; read-out: IC50, neutralization of spike-containing pseudovirus across all VOCs): 0.7 to 2.8 µM

Structure (SMILES): Cn1nnnc1C1(c2cccc(Cl)c2)CCC1 [GEN777]
- IC50 [1, 15]: > 50 µM
- IC50 [2, 16]: > 50 µM

Structure (SMILES): OC1CCN(c2nc(Nc3ccc4c(c3)CCC4)nc(N3CCC(F)(F)CC3)n2)CC1 [GXA70]
- IC50 (SARS-CoV-2 M^pro [13]): 43 µM

Structure (SMILES): CN(c1nc(N2CCOCC2)nc(N2CCc3ccccc32)n1)C1CCC(NS(N)(=O)=O)CC1 (stereo not shown) [GXA112]
- IC50 (SARS-CoV-2 M^pro [13]): 34.2 µM

Structure (SMILES): CS(=O)(=O)c1cccc(C[C@H](NC(=O)c2c(Cl)cc3c(c2Cl)CCN(C(=O)c2ccc4ccoc4c2)C3)C(=O)O)c1 [Lifitegrast]
- antiviral potency against SARS-CoV-2 in vitro (SARS-CoV-2): dose-dependent antiviral potency

Structure (SMILES): CN(Cc1ccc(Cl)c(Cl)c1)c1ccc(S(N)(=O)=O)cn1 [Z68337194]
- Binding to M^pro seen in crystal structure (SARS-CoV-2 M^pro [14]): bound in the active site pocket
- IC50 (SARS-CoV-2 M^pro [13]): 35.5 µM
